These results are taken from patent publication US10723727B2, “Tubulysin analogs and methods for their preparation” (priority 2016, dated 2020).

Test [1] has as its system N87 (gastric cancer) cells. Nature of the test: In vitro cell assay (MTS cell viability), N87. Format: cell-based. The note with it: free compounds, 96 hours after treatment. The procedure:
(§1) In Vitro Cell Assay Procedure
(§2) Target expressing (BT474 (breast cancer), N87 (gastric cancer), HCC1954 (breast cancer), MDA-MB-361-DYT2 (breast cancer)) or non-expressing (HT-29) cells were seeded in 96-well cell culture plates for 24 hours before treatment. Cells were treated with 3-fold serially diluted antibody-drug conjugates or free compounds (i. e. no antibody conjugated to the drug) in duplicate at 10 concentrations. Cell viability was determined by CellTiter 96® AQueous One Solution Cell Proliferation MTS Assay (Promega, Madison Wis.) 96 hours after treatment. Relative cell viability was determined as percentage of untreated control. IC50 values were calculated using a four parameter logistic model #203 with XLfit v4. 2 (IDBS, Guildford, Surry, UK).

The subject of the next test is HT-29 cells. Briefly: In vitro cell assay (MTS cell viability), HT-29 (target non-expressing). Format: cell-based. The note with it: free compounds, 96 hours after treatment, read-out: HT29 IC50. The procedure: as §1, §2
For test [2], the system named is MDA-MB-361-DYT2 (breast cancer) cells. Briefly: In vitro cell assay (MTS cell viability), MDA-MB-361-DYT2. Format: cell-based. The conditions noted are these: free compounds, 96 hours after treatment. The procedure: as §1, §2
Test [3] has as its target T1, tubulin/RB3-stathmin-like-domain (RB3-SLD-tdm) complex (Sus scrofa, UniProt P02550+P02554).
T1 construct: purchased Cytoskeleton, Inc. T240; host or cells: RB3-SLD was made in house in E. coli
Nature of the test: Tubulin Peptide-Binding Site Competition Assay (fluorescence polarization). More on the design: species or system Porcine. In short, it runs like this:
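The BODIPY vinca-peptide probe was premixed with test compound and then added to porcine tubulin/RB3-SLD, at final concentrations of 3 nM probe, 6 nM tubulin and 100 nM RB3-SLD. The buffer was PIPES pH 7.0 with Tween 20, MgCl2 and EGTA, and 11-point dilutions were run in duplicate. IC50 was fitted from the fluorescence polarization decrease and converted to Ki.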

[4] abbreviates: FP competition with BODIPY-labeled vinca peptide probe, read after five hours at 22° C., read-out: Tubulin Peptide-Binding Site Competition Assay IC50.

pIC50: −log10 of the molar value. Where two headings read alike, the source gives them in different places.

As usually defined, the pIC50 is −log10 of the IC50, conventionally taken in molar units. Take `CC[C@H](C)[C@H](NC(=O)[C@@]1(C)CCCN1C)C(=O)N(C)[C@H](C[C@@H](OC(C)=O)c1nc(C(=O)N[C@@H](Cc2ccccc2)C[C@H](C)C(=O)OC)cs1)C(C)C` [#B5, 1,2-dimethyl-D-prolyl-N-[(1R,3R)-1-(acetyloxy)-1-(4-{[(2R,4S)-5-methoxy-4-methyl-5-oxo-1-phenylpentan-2-yl]carbamoyl}-1,3-thiazol-2-yl)-4-methylpentan-3-yl]-N-methyl-L-isoleucinamide]: the pIC50 in test [1] (96 h) was 9.12; in the test on HT-29 cells (Homo sapiens, HT-29, 96 h), 8.96; in test [2] (96 h), 9.44; in test [3] (setting [4]) it was 7.65.
Taken in the same sequence, the figures for `CC[C@H](C)[C@H](NC(=O)[C@@]1(C)CCCN1C)C(=O)N(C)[C@H](C[C@@H](OC(C)=O)c1nc(C(=O)N[C@H](CNS(C)(=O)=O)Cc2ccccc2)cs1)C(C)C` [#B58, 1,2-dimethyl-D-prolyl-N-{(1R,3R)-1-(acetyloxy)-4-methyl-1-[4-({(2S)-1-[(methylsulphonyl)amino]-3-phenylpropan-2-yl}carbamoyl)-1,3-thiazol-2-yl]pentan-3-yl}-N-methyl-L-isoleucinamide] were 8.25, 8.83, 8.65 and 8.30.
As to `CCNC(=O)O[C@H](C[C@H](C(C)C)N(C)C(=O)[C@@H](NC(=O)[C@]1(C)CCCCN1C)[C@@H](C)CC)c1nc(C(=O)N[C@@H](Cc2ccc(N)cc2)C[C@H](C)C(=O)O)cs1` [#B25, (2S,4R)-5-(4-aminophenyl)-4-{[(2-{(1R,3R)-3-[(N-{[(2S)-1,2-dimethylpiperidin-2-yl]carbonyl}-L-isoleucyl)(methyl)amino]-1-[(ethylcarbamoyl)oxy]-4-methylpentyl}-1,3-thiazol-4-yl)carbonyl]amino}-2-methylpentanoic acid], the pIC50 in test [1] was 8.20; with HT-29 cells, 8.23; in test [2], 8.34.
With `CC[C@H](C)[C@H](NC(=O)[C@@]1(C)CCCN1C)C(=O)N(C)[C@H](C[C@H](O)c1nc(C(=O)N[C@@H](Cc2ccc(N)cc2)C[C@H](C)C(=O)O)cs1)C(C)C` [#B33, 1,2-dimethyl-D-prolyl-N-{(1S,3R)-1-(4-{[(2R,4S)-1-(4-aminophenyl)-4-carboxypentan-2-yl]carbamoyl}-1,3-thiazol-2-yl)-1-hydroxy-4-methylpentan-3-yl]-N-methyl-L-isoleucinamide], the pIC50 in test [1] (96 h) is under 6.00; in the test with HT-29 cells (Homo sapiens, HT-29, 96 h), under 6.00; in test [2] (96 h), under 6.00.
Regarding `CCOP(=O)(OCC)[C@@H](C)C[C@H](Cc1ccc(N)cc1)NC(=O)c1csc([C@@H](C[C@H](C(C)C)N(C)C(=O)[C@@H](NC(=O)[C@H]2CCCCN2C)[C@@H](C)CC)OC(C)=O)n1` [#B11, (1R,3R)-1-(4-{[(2S,4S)-1-(4-aminophenyl)-4-(diethoxyphosphoryl)pentan-2-yl]carbamoyl}-1,3-thiazol-2-yl)-4-methyl-3-[methyl(N-{[(2R)-1-methylpiperidin-2-yl]carbonyl}-L-isoleucyl)amino]pentyl Acetate], the pIC50 was 9.04 in test [1] (96 h); 9.02 in the test with HT-29 cells (Homo sapiens, HT-29, 96 h); 9.22 in test [2] (96 h).
The matching figures for `CC[C@H](C)[C@H](NC(=O)[C@@]1(C)CCCN1C)C(=O)N(C)[C@H](C[C@@H](NC(C)=O)c1nc(C(=O)N[C@@H](Cc2ccccc2)C[C@H](C)C(=O)OC)cs1)C(C)C` [#B20, 1,2-dimethyl-D-prolyl-N-[(1R,3R)-1-(acetylamino)-1-(4-{[(2R,4S)-5-methoxy-4-methyl-5-oxo-1-phenylpentan-2-yl]carbamoyl}-1,3-thiazol-2-yl)-4-methylpentan-3-yl]-N-methyl-L-isoleucinamide]: 8.21, 8.47 and 8.59.
Taken in the same sequence, the figures for `CCNC(=O)N[C@H](C[C@H](C(C)C)N(C)C(=O)[C@@H](NC(=O)[C@@]1(C)CCCN1C)[C@@H](C)CC)c1nc(C(=O)N[C@@H](Cc2ccc(N)cc2)C[C@H](C)C(=O)O)cs1` [#B29, 1,2-dimethyl-D-prolyl-N-{(1R,3R)-1-(4-{[(2R,4S)-1-(4-aminophenyl)-4-carboxypentan-2-yl]carbamoyl}-1,3-thiazol-2-yl)-1-[(ethylcarbamoyl)amino]-4-methylpentan-3-yl}-N-methyl-L-isoleucinamide] were 7.54, 7.61 and 7.60.
The matching figures for `CCOC(=O)[C@@H](C)C[C@H](Cc1ccccc1)NC(=O)c1csc([C@@H](C[C@H](C(C)C)N(C)C(=O)[C@@H](NC(=O)[C@@]2(C)CCCN2C)[C@@H](C)CC)NC(C)=O)n1` [#B18, 1,2-dimethyl-D-prolyl-N-[(1R,3R)-1-(acetylamino)-1-(4-{[(2R,4S)-5-ethoxy-4-methyl-5-oxo-1-phenylpentan-2-yl]carbamoyl}-1,3-thiazol-2-yl)-4-methylpentan-3-yl]-N-methyl-L-isoleucinamide]: under 7.00, under 7.00 and under 7.00.
Take `CC[C@H](C)[C@H](NC(=O)[C@@]1(C)CCCN1C)C(=O)N(C)[C@H](C[C@@H](NC(C)=O)c1nc(C(=O)N[C@@H](Cc2ccccc2)C[C@H](C)C(=O)O)cs1)C(C)C` [#B19, 1,2-dimethyl-D-prolyl-N-[(1R,3R)-1-(acetylamino)-1-(4-{[(2R,4S)-4-carboxy-1-phenylpentan-2-yl]carbamoyl}-1,3-thiazol-2-yl)-4-methylpentan-3-yl]-N-methyl-L-isoleucinamide]: the pIC50 was 7.42 in test [1] (96 h); 7.84 in the test with HT-29 cells (Homo sapiens, HT-29, 96 h); 7.76 in test [2] (96 h).
Consider `CC[C@H](C)[C@H](NC(=O)[C@@]1(C)CCCN1C)C(=O)N(C)[C@H](C[C@@H](NC(C)=O)c1nc(C(=O)N[C@@H](Cc2ccc(N)cc2)C[C@H](C)C(=O)O)cs1)C(C)C` [#B28, 1,2-dimethyl-D-prolyl-N-[(1R,3R)-1-(acetylamino)-1-(4-{[(2R,4S)-1-(4-aminophenyl)-4-carboxypentan-2-yl]carbamoyl}-1,3-thiazol-2-yl)-4-methylpentan-3-yl]-N-methyl-L-isoleucinamide], for which the negative-log IC50 (pIC50) in test [1] (96 h) is under 7.00; in the test on HT-29 cells (Homo sapiens, HT-29, 96 h), 7.13; in test [2] (96 h), 7.09.
For the compound `CCNC(=O)O[C@H](C[C@H](C(C)C)N(C)C(=O)[C@@H](NC(=O)C1(C)CCCCN1C)[C@@H](C)CC)c1nc(C(=O)N[C@@H](Cc2ccc(N)cc2)C[C@H](C)C(=O)O)cs1` (stereo in doubt) [#B24, (2S,4R)-5-(4-aminophenyl)-4-{[(2-{(1R,3R)-3-[(N-{[(2R)-1,2-dimethylpiperidin-2-yl]carbonyl}-L-isoleucyl)(methyl)amino]-1-[(ethylcarbamoyl)oxy]-4-methylpentyl}-1,3-thiazol-4-yl)carbonyl]amino}-2-methylpentanoic acid], the pIC50 is 8.91 in test [1], 8.94 in the test on HT-29 cells and 8.91 in test [2].
With `CC[C@H](C)[C@H](NC(=O)[C@H]1CCCCN1C)C(=O)N(C)[C@H](C[C@@H](OC(C)=O)c1nc(C(=O)N[C@@H](Cc2ccccc2)CC(C)P(=O)(O)O)cs1)C(C)C` (stereo partly drawn) [#B3, N-[(1R,3R)-1-(acetyloxy)-4-methyl-1-(4-{[(2S)-1-phenyl-4-phosphonopentan-2-yl]carbamoyl}-1,3-thiazol-2-yl)pentan-3-yl]-N-methyl-N˜2˜-{[(2R)-1-methylpiperidin-2-yl]carbonyl}-L-isoleucinamide], the pIC50 in test [1] (96 h) was 7.83; in test [2] (96 h), 8.03; in test [3], 8.36.
Turning to `CCNC(=O)O[C@H](C[C@H](C(C)C)N(C)C(=O)[C@@H](NC(=O)[C@@]1(C)CCCN1C)[C@@H](C)CC)c1nc(C(=O)N[C@H](C(=O)OC)C(C)O)cs1` (stereo partly drawn) [#B22, 1,2-dimethyl-D-prolyl-N-{(1R,3R)-1-[(ethylcarbamoyl)oxy]-1-(4-{[(2S)-3-hydroxy-1-methoxy-1-oxobutan-2-yl]carbamoyl}-1,3-thiazol-2-yl)-4-methylpentan-3-yl]-N-methyl-L-isoleucinamide], the pIC50 in test [1] (96 h) was 7.92; in the test with HT-29 cells (Homo sapiens, HT-29, 96 h) it was 7.84; in test [2] (96 h), 7.95.
The matching figures for `CC[C@H](C)[C@H](NC(=O)[C@]1(C)CCCCN1C)C(=O)N(C)[C@H](C[C@@H](OC(C)=O)c1nc(C(=O)N[C@@H](Cc2ccc(N)cc2)C[C@H](C)C(=O)O)cs1)C(C)C` [#B23, (2S,4R)-4-{[(2-{(1R,3R)-1-(acetyloxy)-3-[(N-{[(2S)-1,2-dimethylpiperidin-2-yl]carbonyl}-L-isoleucyl)(methyl)amino]-4-methylpentyl}-1,3-thiazol-4-yl)carbonyl]amino}-5-(4-aminophenyl)-2-methylpentanoic acid]: 8.57, 8.63 and 8.70.
